Reference: PMC12366525, “Characterization of allosteric modulators that disrupt androgen receptor co-activator protein-protein interactions to alter transactivation–Drug leads for metastatic castration resistant prostate cancer” (SLAS discovery : advancing life sciences R & D, 2023)
Like-named read-outs stand apart in the source and are kept apart here. Values belong to the compound of their own block, whether it stands above or below them.

Tests used:
Format in all cases: cell-based
[1] = C4–2 PSA6.1-Luc viability counter screen; details: human, C4–2 cells (C4–2 PSA6.1-Luc); cytotoxicity counter screen; read-out: C4–2 PSA6.1-Luc viability CS GI50
[2] = tested on: PC cell lines positive (LNCaP, C4–2, & 22Rv1 cells) or negative (PC-3 & DU-145) for AR; experiment: Prostate cancer cell line growth inhibition assays, panel statements; details: 72 h
Experimental: (§1) The PC-3, DU-145, LNCaP, C4–2, and 22Rv1 PC cell line growth inhibition assays have been described previously. On day 1, each PC cell line was harvested, counted, and seeded into two 384-well assay plates, a time zero (T0) and a time 72 h (T72) plate. PC cell lines were all seeded at 1000 cells per well in 45 μL of tissue culture media in uncoated white clear bottom 384-well assay plates (VWR, # 82050–076) using a Matrix electronic multichannel pipette (Thermo Fisher Scientific, Waltham, MA) and cultured overnight at 37 °C, 5% CO2, and 95% humidity. On day 2, 25 μL of the Cell Titer Glo (CTG) (Promega Corporation, Madison, WI) detection reagent was dispensed into the wells of the T0 assay plate using a Matrix electronic multichannel pipette, and the RLUs were captured on the SpectraMax M5e (Molecular Devices LLC, Sunnyvale, CA) microtiter plate reader. Also on day 2, 5 μL of compounds were transferred into the test wells of the T72 384-well assay plates which were returned to the incubator for 72 h. Control wells received DMSO alone. On day 5, 25 μL of the CTG detection reagent was dispensed into the wells of the T72 assay plate using a Matrix electronic multichannel pipette, and the RLU’s were captured on the SpectraMax M5e microtiter plate reader platform.
(§2) In 384-well assays, DMSO minimum (n = 32) and maximum (n = 32) plate control wells were utilized to calculate signal-to-background ratios (S:B) and Z’-factor coefficient assay performance quality control statistics, and to normalize the signals of compound treated wells and to represent 0% and 100% respectively. For the 96-well AR-LBD H^3-DHT radioligand binding assay, eight minimum and maximum plate control wells were utilized to normalize the data. For the PC cell line growth inhibition assays we used the DMSO control data from the T0 and T72 assay plates to assess the dynamic range of the T0 to T72 cell growth, and to calculate S:B ratios and Z’-factor coefficient statistics for the assay signal window (T0 to T72). To normalize the 72 h compound exposure PC growth inhibition data, the signals from the compound treated wells were processed and expressed as% of the T72 DMSO plate controls. IC50 and GI50 values for each of the bioassays were calculated using Graph-Pad Prism 9 software to plot and fit data to curves using the Sigmoidal dose response variable slope equation Y = Bottom + [Top-Bottom]/ [1 + 10^^(LogEC50-X)*HillSlope].

U-2 OS cells = experiment: AR-TIF2 PPIB cell loss (Hoechst stained nuclei); details: 4.5 h compound exposure
Experimental: The AR-TIF2 PPIB HCS assay was performed in U-2 OS osteosarcoma cells as described previously. Briefly, U-2 OS cells were coinfected with recombinant adenovirus biosensor expression constructs and seeded at 2500 cells per well in 384-well collagen-coated microplates (Greiner BioOne #781956) and plates were incubated overnight at 37°C in 5% CO2 and 95% humidity. […] After the appropriate time, assay plates were fixed by transfer of 50 μL of pre-warmed (37°C) 7.4% formaldehyde and 2 μg/mL Hoechst 33342 in PBS and incubation at room temperature for 30 min. Liquid was aspirated, plates were washed twice with 85 μL PBS, leaving the final wash in the plate. Plates were sealed with adhesive aluminum plate seals, and fluorescent images of three fields of view were acquired in the DAPI (Hoechst stained nuclei), FITC (TIF2-GFP) and Texas Red (AR-RFP) channels on an ImageXpress Micro (IXM) automated HCS platform (Molecular Devices LLC, Sunnyvale, CA) using a 10X Plan Fluor 0.3 NA objective. Images were analyzed using the Translocation Enhanced (TE) image analysis module of the MetaXpress software as described previously.

DU-145 cells = experiment: Prostate cancer cell line growth inhibition assay, DU-145; details: read-out: DU145 GI50 (AR−)
Experimental: as §1, §2

AR-LBD and TIF2 = molecular target: T1, AR-LBD and TIF2 (Homo sapiens, UniProt P10275); experiment: TIF2 mammalian 2-hybrid (M2H) assay; details: for IC50: HEK 293 cells, 25 nM DHT, 27 h compound exposure, read-out: M2H AR-TIF2 CoA Recruitment IC50
T1 construct: AR-LBD amino acids 658–919 expressed as a fusion protein with Gal4-DBD; expressed in transfected cells; host or cells: HEK 293
T1 sequence (P10275 658-919): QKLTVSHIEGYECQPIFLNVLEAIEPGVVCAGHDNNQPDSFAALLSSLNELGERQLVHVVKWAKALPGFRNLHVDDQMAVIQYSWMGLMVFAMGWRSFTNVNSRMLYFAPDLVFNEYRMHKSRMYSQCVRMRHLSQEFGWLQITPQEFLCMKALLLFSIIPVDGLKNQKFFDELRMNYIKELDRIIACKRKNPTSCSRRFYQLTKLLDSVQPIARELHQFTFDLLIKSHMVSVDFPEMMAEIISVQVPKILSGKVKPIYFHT
Description: The 5xGAL4-TATA-luciferase reporter plasmid was a gift from Dr. Richard Maurer from the Oregon Health and Science University, and constructs pGAL4-hAR-658–919 (AR-LBD amino acids 658–919 expressed as a fusion protein with Gal4-DBD), pVP16-SRC1 (full--length SRC1 expressed as a fusion with VP16 activation domain) and pVP16-Empty vector were kindly provided to us by Dr. Elizabeth Wilson, from UNC Chapel Hill. pVP16-TIF2 was generated as described previously. HEK 293 cells were transiently co-transfected with 5 ng of pGal4-AR-LBD, 10 ng of either pVP16-TIF2 or pVP16-SRC1, and 20 ng of the 5xGal4-TATA-Luc reporter as described previously. HEK 293 cells were bulk co-transfected with the three plasmids that had been individually incubated with Fugene 6 at a 3:1 ratio for 25 min at room temperature (RT) in serum free media (SFM) and then combined with HEK 293 cells that were suspended in DMEM (Cellgro10013CV) with 2 mM L-glutamine (Invitrogen) that was supplemented with 10% fetal bovine serum, and 5000 cells in a volume of 40 μL were seeded into the wells of white opaque 384-well assay plates (Greiner Bio-one, #781080) and cultured overnight at 37 °C, 5% CO2, and 95% humidity. […] 25 μL of BrightGlo® reagent was added to the plate and the relative luminescence units (RLUs) were captured on a SpectraMax M5e microtiter plate reader (Molecular Devices, LLC, San Jose, CA).

[3] = LNCaP, C4–2, 22Rv1, read-out: GI50s in AR positive PC cell lines

Compound: Cc1ccccc1-c1cc(O)c2c(c1)CN(c1nc(C(N)=O)cs1)CCO2 [S1–1]
GI50 [1]: > 100 µM | GI50 [2, 3]: 29 to 56 µM | AR-TIF2 PPIB Cell Loss (U-2 OS cells): >100 µM | GI50 (DU-145 cells; Homo sapiens, DU-145, 72 h): > 100 µM | IC50 (AR-LBD and TIF2): 5.77 µM

Compound: Cc1ccccc1-c1cc(O)c2c(c1)CN(c1nccs1)CCO2 [S1–3]
Cytotoxicity in AR positive relative to AR negative PC cell lines [2]: exhibited differential cytotoxicity in AR positive PC cell lines | AR-TIF2 PPIB Cell Loss (U-2 OS cells): >100 µM | GI50 (DU-145 cells; 72 h): > 100 µM | IC50 (AR-LBD and TIF2): 7.46 µM

Compound: Cc1c(-c2ccccc2F)[nH]c2ccc(CNC(=O)CCc3cn[nH]c3)cc12 [S3–11]
GI50 [1]: > 100 µM | Cytotoxicity in AR positive relative to AR negative PC cell lines [2]: exhibited differential cytotoxicity in AR positive PC cell lines relative to AR negative cell lines | AR-TIF2 PPIB Cell Loss (U-2 OS cells): >100 µM | GI50 (DU-145 cells; Homo sapiens, DU-145, 72 h): 18 µM | IC50 (AR-LBD and TIF2): 6.38 µM

Compound: CC(=O)NCCC(=O)NCc1ccc2[nH]c(-c3ccccc3F)c(C)c2c1 [S3–13]
GI50 [1]: > 100 µM | Cytotoxicity in AR positive relative to AR negative PC cell lines [2]: roughly equipotent against all 5 PC cell lines | AR-TIF2 PPIB Cell Loss (U-2 OS cells): >100 µM | GI50 (DU-145 cells; Homo sapiens, DU-145, 72 h): > 100 µM | IC50 (AR-LBD and TIF2): 18 µM

Stronger by IC50 (AR-LBD and TIF2), values ahead:

AR-TIF2 PPIB Cell Loss (U-2 OS cells): >100 µM | GI50 (DU-145 cells; Homo sapiens, DU-145, 72 h): 6.82 µM | IC50 (AR-LBD and TIF2): 5.44 µM
Compound: Cc1c(-c2ccccc2F)[nH]c2ccc(CNC(=O)CCc3cnccn3)cc12 [S3–12]
GI50 [1]: > 100 µM | Cytotoxicity in AR positive relative to AR negative PC cell lines [2]: roughly equipotent against all 5 PC cell lines

AR-TIF2 PPIB Cell Loss (U-2 OS cells): >100 µM | GI50 (DU-145 cells; Homo sapiens, DU-145, 72 h): 24.3 µM | IC50 (AR-LBD and TIF2): 3.32 µM
Compound: Cc1c(-c2ccc(F)cc2)[nH]c2ccc(CNC(=O)c3ccc(CO)o3)cc12 [S3–15]
GI50 [1]: > 100 µM | Cytotoxicity in AR positive relative to AR negative PC cell lines [2]: roughly equipotent against all 5 PC cell lines

AR-TIF2 PPIB Cell Loss (U-2 OS cells): >100 µM | GI50 (DU-145 cells; Homo sapiens, DU-145, 72 h): > 100 µM | IC50 (AR-LBD and TIF2): 2.43 µM
Compound: Cc1c(-c2ccccc2F)[nH]c2ccc(CNC(=O)c3ccc(CO)o3)cc12 [S3–14]
GI50 [1]: > 100 µM | Cytotoxicity in AR positive relative to AR negative PC cell lines [2]: exhibited differential cytotoxicity in AR positive PC cell lines relative to AR negative cell lines

GI50 ([2]; Homo sapiens, PC-3, DU-145, read-out: GI50s in AR negative PC cell lines): > 100 µM | GI50 [2, 3]: 14 to 19 µM | AR-TIF2 PPIB Cell Loss (U-2 OS cells): >100 µM | GI50 (DU-145 cells; Homo sapiens, DU-145, 72 h): > 100 µM | IC50 (AR-LBD and TIF2): 0.08 µM | CoA selectivity, lower IC50 for TIF2 than SRC1 (AR-LBD and TIF2; M2H assays): ~ 5 fold
Compound: Cc1nsc(NC(=O)N2CCC(Sc3ccccc3C)CC2)n1 [S2–6]
GI50 [1]: > 100 µM | Cytotoxicity in AR positive relative to AR negative PC cell lines [2]: exhibited differential cytotoxicity in AR positive PC cell lines
